Reference: patent US12454529B2, “Piperazine cyclic ureas” (SIRONAX LTD., priority 2020, dated 2025)

These compounds were tested on HT-29 cells (assay: HT-29 cell necrosis/necroptosis inhibition (TNF-α + SMAC mimetic + zVAD-FMK; CellTiter-Glo cell viability)). Conditions: Homo sapiens, HT-29, 20 h, read-out: EC50 (Cell activity; Necrosis/Necroptosis Inhibitory Activity, Compounds 1-142).
Format: cell-based
Summary of the method: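 HT-29 cells (~5,000/well) were switched to FBS-free McCOY's 5A holding TNF-α (10 ng/ml), SMAC mimetic (6 μM) and zVAD-FMK (10 μM), then dosed with a 10-point 1:3 series for 20 h at 37 °C. CellTiter-Glo luminescence gave viability; geometric mean EC50 from duplicates.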

Structure (SMILES) | EC50 [nM]
CCOC(=O)c1n[nH]c(C)c1-c1nc(N2CCN(C(=O)N3N=CC[C@H]3c3cc(F)cc(C#N)c3)CC2)ncc1F [Compound 73, ethyl (S)-4-(2-(4-(5-(3-cyano-5-fluorophenyl)-4,5-dihydro-1H-pyrazole-1-carbonyl)piperazin-1-yl)-5-fluoropyrimidin-4-yl)-5-methyl-1H-pyrazole-3-carboxylat] | 0.1 to 100

Same assay, conditions: Homo sapiens; HT-29 cells, TNF-α 10 ng/ml + SMAC mimetic 6 μM + zVAD-FMK 10 μM, 20 hours; geometric mean, 10 points in duplicate; read-out: EC50 (Cell activity; Necrosis/Necroptosis Inhibitory Activity, Compounds 1-142)

Structure (SMILES) | EC50 [nM]
Cc1cc(-c2nc(N3CCN(C(=O)N4N=CC[C@H]4c4ccccc4)CC3)ncc2F)n(C)n1 [Compound 85, (S)-(4-(4-(1,3-dimethyl-1H-pyrazol-5-yl)-5-fluoropyrimidin-2-yl)piperazin-1-yl)(5-phenyl-4,5-dihydro-1H-pyrazol-1-yl)methanone] | 0.1 to 100
O=C(O)c1c[nH]c(-c2nc(N3CCN(C(=O)N4N=CC[C@H]4c4cc(F)cc(F)c4)CC3)ncc2F)c1 [Compound 21, (S)-5-(2-(4-(5-(3,5-difluorophenyl)-4,5-dihydro-1H-pyrazole-1-carbonyl)piperazin-1-yl)-5-fluoropyrimidin-4-yl)-1H-pyrrole-3-carboxylic acid] | 0.1 to 100
Cc1nn(-c2nc(N3CCN(C(=O)N4N=CC[C@H]4c4cc(F)cc(C#N)c4)CC3)ncc2F)c(C)c1N [Compound 131, (S)-3-(1-(4-(4-(4-amino-3,5-dimethyl-1H-pyrazol-1-yl)-5-fluoropyrimidin-2-yl)piperazine-1-carbonyl)-4,5-dihydro-1H-pyrazol-5-yl)-5-fluorobenzonitrile] | 0.1 to 100
COC(=O)c1c[nH]c(-c2nc(N3CCN(C(=O)N4N=CC[C@H]4c4cc(F)cc(F)c4)CC3)ncc2F)c1 [Compound 12, methyl (S)-5-(2-(4-(5-(3,5-difluorophenyl)-4,5-dihydro-1H-pyrazole-1-carbonyl)piperazin-1-yl)-5-fluoropyrimidin-4-yl)-1H-pyrrole-3-carboxylate] | 0.1 to 100
Cn1nccc1-c1nc(N2CCN(C(=O)N3N=CC[C@H]3c3cc(F)cc(F)c3)CC2)ncc1F [Compound 28, (S)-(5-(3,5-difluorophenyl)-4,5-dihydro-1H-pyrazol-1-yl)(4-(5-fluoro-4-(1-methyl-1H-pyrazol-5-yl)pyrimidin-2-yl)piperazin-1-yl)methanone] | 0.1 to 100
Cn1ncc(Cl)c1-c1nc(N2CCN(C(=O)N3N=CC[C@H]3c3cc(F)cc(F)c3)CC2)ncc1F [Compound 68, (S)-(4-(4-(4-chloro-1-methyl-1H-pyrazol-5-yl)-5-fluoropyrimidin-2-yl)piperazin-1-yl)(5-(3,5-difluorophenyl)-4,5-dihydro-1H-pyrazol-1-yl)methanone] | 0.1 to 100
Cc1nc(C)n(-c2nc(N3CCN(C(=O)N4N=CC[C@H]4c4cc(F)cc(C#N)c4)CC3)ncc2F)n1 [Compound 47, (S)-3-(1-(4-(4-(3,5-dimethyl-1H-1,2,4-triazol-1-yl)-5-fluoropyrimidin-2-yl)piperazine-1-carbonyl)-4,5-dihydro-1H-pyrazol-5-yl)-5-fluorobenzonitrile] | 0.1 to 100
COC(=O)c1cc(C)n(-c2nc(N3CCN(C(=O)N4N=CC[C@H]4c4cc(F)cc(F)c4)CC3)ncc2F)c1 [Compound 91, methyl (5)-1-(2-(4-(5-(3,5-difluorophenyl)-4,5-dihydro-1H-pyrazole-1-carbonyl)piperazin-1-yl)-5-fluoropyrimidin-4-yl)-5-methyl-1H-pyrrole-3-carboxylate] | 0.1 to 100
N#Cc1cn(-c2ccnc(N3CCN(C(=O)N4N=CC[C@H]4c4cc(F)cc(F)c4)CC3)n2)cn1 [Compound 2, (S)-1-(2-(4-(5-(3,5-difluorophenyl)-4,5-dihydro-1H-pyrazole-1-carbonyl)piperazin-1-yl)pyrimidin-4-yl)-1H-imidazole-4-carbonitrile] | 0.1 to 100
O=C(N1CCN(c2ncc(F)c(-c3cn[nH]c3)n2)CC1)N1N=CC[C@H]1c1cc(F)cc(F)c1 [Compound 52, (S)-(5-(3,5-difluorophenyl)-4,5-dihydro-1H-pyrazol-1-yl)(4-(5-fluoro-4-(1H-pyrazol-4-yl)pyrimidin-2-yl)piperazin-1-yl)methanone] | 0.1 to 100
Cc1cc(-c2nc(N3CCN(C(=O)N4N=CC[C@H]4c4cncc(F)c4)CC3)ncc2F)n(C)n1 [Compound 86, (S)-(4-(4-(1,3-dimethyl-1H-pyrazol-5-yl)-5-fluoropyrimidinyl)piperazin-1-yl)(5-(5-fluoropyridin-3-yl)-4,5-dihydro-1H-pyrazol-1-yl)methanone] | 0.1 to 100
Cn1cc(-c2nc(N3CCN(C(=O)N4N=CC[C@H]4c4cc(F)cc(F)c4)CC3)ncc2F)ccc1=O [Compound 89, (S)-5-(2-(4-(5-(3,5-difluorophenyl)-4,5-dihydro-1H-pyrazole-1-carbonyl)piperazin-1-yl)-5-fluoropyrimidin-4-yl)-1-methylpyridin-2(1H)-one] | 0.1 to 100
Cn1nc(CO)nc1-c1nc(N2CCN(C(=O)N3N=CC[C@H]3c3cc(F)cc(C#N)c3)CC2)ncc1F [Compound 72, (S)-3-fluoro-5-(1-(4-(5-fluoro-4-(3-(hydroxymethyl)-1-methyl-1H-1,2,4-triazol-5-yl)pyrimidin-2-yl)piperazine-1-carbonyl)-4,5-dihydro-1H-pyrazol-5-yl)benzonitrile] | 0.1 to 100

Same assay, conditions: Homo sapiens; HT-29 cells, TNF-α 10 ng/ml + SMAC mimetic 6 μM + zVAD-FMK 10 μM, 20 hours; geometric mean, 10 points in duplicate; read-out: EC50 (Cell activity; Necrosis/Necroptosis Inhibitory Activity, Compounds 143-323)

Structure (SMILES) | EC50 [nM]
Cc1nn(-c2cc(N3CCN(C(=O)N4N=CC[C@H]4c4cc(F)cc(C#N)c4)CC3)ncn2)c(C)c1C#N [Compound 279, (S)-1-(6-(4-(5-(3-cyano-5-fluorophenyl)-4,5-dihydro-1H-pyrazole-1-carbonyl)piperazin-1-yl)pyrimidin-4-yl)-3,5-dimethyl-1H-pyrazole-4-carbonitrile] | 0.1 to 100
O=C(N1CCN(c2ncc(F)c(-n3nccc3C(F)(F)F)n2)CC1)N1N=CC[C@H]1c1ccccc1 [Compound 307, (S)-(4-(5-fluoro-4-(5-(trifluoromethyl)-1H-pyrazol-1-yl)pyrimidin-2-yl)piperazin-1-yl)(5-phenyl-4,5-dihydro-1H-pyrazol-1-yl)methanone] | 0.1 to 100
O=C(N1CCN(c2ncc(F)c(-n3cnc(C(F)(F)F)n3)n2)CC1)N1N=CC[C@H]1c1cccc(F)c1 [Compound 313, (S)-(4-(5-fluoro-4-(3-(trifluoromethyl)-1H-1,2,4-triazol-1-yl)pyrimidin-2-yl)piperazin-1-yl)(5-(3-fluorophenyl)-4,5-dihydro-1H-pyrazol-1-yl)methanone] | 0.1 to 100
Cc1nc(C(F)(F)F)nn1-c1nc(N2CCN(C(=O)N3N=CC[C@H]3c3cc(F)cc(F)c3)CC2)ncc1F [Compound 203, (S)-(5-(3,5-difluorophenyl)-4,5-dihydro-1H-pyrazol-1-yl)(4-(5-fluoro-4-(5-methyl-3-(trifluoromethyl)-1H-1,2,4-triazol-1-yl)pyrimidin-2-yl)piperazin-1-yl)methanone] | 0.1 to 100
Cc1cnn(C)c1-c1nc(N2CCN(C(=O)N3N=CC[C@H]3c3cc(F)cc(F)c3)CC2)sc1CO [Compound 267, (S)-(5-(3,5-difluorophenyl)-4,5-dihydro-1H-pyrazol-1-yl)(4-(4-(1,4-dimethyl-1H-pyrazol-5-yl)-5-(hydroxymethyl)thiazol-2-yl)piperazin-1-yl)methanone] | 1000 to 10000
Cc1nc(C)n(-c2nc(N3CCN(C(=O)N4N=CC[C@@H]4c4cc(F)cc(F)c4F)CC3)ncc2F)n1 [Compound 265, (R)-(4-(4-(3,5-dimethyl-1H-1,2,4-triazol-1-yl)-5-fluoropyrimidin-2-yl)piperazin-1-yl)(5-(2,3,5-trifluorophenyl)-4,5-dihydro-1H-pyrazol-1-yl)methanone] | 100 to 1000
Cc1nc(C)n(-c2cc(N3CCN(C(=O)N4N=CC[C@H]4c4cc(F)cc(F)c4)CC3)c(F)cn2)n1 [Compound 271, (S)-(5-(3,5-difluorophenyl)-4,5-dihydro-1H-pyrazol-1-yl)(4-(2-(3,5-dimethyl-1H-1,2,4-triazol-1-yl)-5-fluoropyridin-4-yl)piperazin-1-yl)methanone] | 0.1 to 100
Cc1nc(C)n(-c2nc(N3CCN(C(=O)N4N=CCC4c4ncc(C)s4)CC3)ncc2F)n1 (centres unmarked) [Compound 216, (4-(4-(3,5-dimethyl-1H-1,2,4-triazol-1-yl)-5-fluoropyrimidin-2-yl)piperazin-1-yl)(5-(5-methylthiazol-2-yl)-4,5-dihydro-1H-pyrazol-1-yl)methanone] | 0.1 to 100
Cc1cnc(C2CC=NN2C(=O)N2CCN(c3ncc(F)c(-c4cnn(C)n4)n3)CC2)s1 (centres unmarked) [Compound 317, (4-(5-fluoro-4-(2-methyl-2H-1,2,3-triazol-4-yl)pyrimidin-2-yl)piperazin-1-yl)(5-(5-methylthiazol-2-yl)-4,5-dihydro-1H-pyrazol-1-yl)methanone] | 100 to 1000
Cc1nc(C(=O)O)nn1-c1nc(N2CCN(C(=O)N3N=CC[C@H]3c3cc(F)cc(C#N)c3)CC2)ncc1F [Compound 190] | 1000 to 10000
Cc1ncn(-c2nc(N3CCN(C(=O)N4N=CC[C@H]4c4cncc(F)c4)CC3)ncc2F)n1 [Compound 311, (S)-(4-(5-fluoro-4-(3-methyl-1H-1,2,4-triazol-1-yl)pyrimidin-2-yl)piperazin-1-yl)(5-(5-fluoropyridin-3-yl)-4,5-dihydro-1H-pyrazol-1-yl)methanone] | 0.1 to 100
Cc1c(-c2nc(N3CCN(C(=O)N4N=CC[C@H]4c4cc(F)cc(F)c4)CC3)ncc2F)c(C(F)(F)F)nn1C [Compound 198, (S)-(5-(3,5-difluorophenyl)-4,5-dihydro-1H-pyrazol-1-yl)(4-(4-(1,5-dimethyl-3-(trifluoromethyl)-1H-pyrazol-4-yl)-5-fluoropyrimidin-2-yl)piperazin-1-yl)methanone] | 0.1 to 100
